A word on the Ki: it is a dissociation constant, usually derived from enzyme kinetics or from competition with a known ligand.

The record followed here is patent publication US6727264B1 (Synaptic Pharmaceutical Corporation, priority 2001, dated 2004).

The target of the assay is rat MCH-1 (Rattus norvegicus, UniProt P97639). The assay can be described thus: Radioligand binding assay at cloned rat MCH1 receptor ([3H] Compound A). The settings on record: cloned rat MCH1 receptor; 0.08 nM [3H] Compound A; Peakr293 cell membranes; read-out: Ki (nM) rMCH1. Also noted: host or cells: Peak rapid 293 (Peakr293) cells, transient calcium phosphate transfection, membranes.
Chain of rat MCH-1 (P97639 whole entry): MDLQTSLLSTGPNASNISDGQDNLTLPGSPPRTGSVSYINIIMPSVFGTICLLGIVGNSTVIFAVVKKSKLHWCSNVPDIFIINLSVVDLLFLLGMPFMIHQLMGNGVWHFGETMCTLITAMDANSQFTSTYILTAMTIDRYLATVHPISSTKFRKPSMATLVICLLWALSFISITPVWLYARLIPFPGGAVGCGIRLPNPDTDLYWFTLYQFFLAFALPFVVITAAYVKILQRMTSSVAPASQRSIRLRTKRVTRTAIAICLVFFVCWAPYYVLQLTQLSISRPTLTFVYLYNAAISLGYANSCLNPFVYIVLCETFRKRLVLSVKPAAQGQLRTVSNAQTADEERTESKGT
For `CC(C)C(=O)Nc1cccc(C2CCN(CCCc3c(-c4ccc(Br)cc4)[nH]c4ccc(OC(F)(F)F)cc34)CC2)c1` [Example 754], the Ki came to 49.2 nM.

Take `CC(C)C(=O)Nc1cccc(C2CCN(CCCc3c(-c4cccc(Br)c4)[nH]c4c3ccc3ccccc34)CC2)c1` [Example 755]: the Ki is 23.8 nM.

As to `CC(C)C(=O)Nc1cccc(C2CCN(CCCc3c(-c4ccc(Br)cc4)[nH]c4ccccc34)CC2)c1` [Example 756], the Ki was 4.2 nM.

In the case of `CC(C)C(=O)Nc1cccc(C2CCN(CCCc3c(-c4cccc(Br)c4)n(-c4ccccc4)c4ccccc34)CC2)c1` [Example 757], the Ki is 6.9 nM.

On to `CC(C)C(=O)Nc1cccc(C2CCN(CCCc3c(-c4cccc(Br)c4)n(C)c4ccccc34)CC2)c1` [Example 758], for which the Ki came to 110 nM.

With `CC(C)C(=O)Nc1cccc(C2CCN(CCCc3c(-c4ccc(Br)cc4)n(C)c4ccccc34)CC2)c1` [Example 759], the Ki is 9.3 nM.

In the case of `CC(C)C(=O)Nc1cccc(C2CCN(CCCc3c(-c4ccc(Br)cc4)n(-c4ccccc4)c4ccccc34)CC2)c1` [Example 760], the inhibitory constant (Ki) was determined as 92.3 nM.

Turning to `COc1ccc2[nH]c(-c3ccc(Br)cc3)c(CCCN3CCC(c4cccc(NC(=O)C(C)C)c4)CC3)c2c1` [Example 761], the Ki is 15.9 nM.

Consider `Cc1cccc2c(CCCN3CCC(c4cccc(NC(=O)C(C)C)c4)CC3)c(-c3cccc(Br)c3)[nH]c12` [Example 762], for which the Ki is 6.3 nM.

Turning to `Cc1ccc2[nH]c(-c3cccc(Br)c3)c(CCCN3CCC(c4cccc(NC(=O)C(C)C)c4)CC3)c2c1` [Example 763], the Ki turned out to be 1.9 nM.

In the case of `Cc1ccc2[nH]c(-c3ccc(Br)cc3)c(CCCN3CCC(c4cccc(NC(=O)C(C)C)c4)CC3)c2c1` [Example 764], the Ki was found to be 14.6 nM.

On to `COc1ccc2[nH]c(-c3cccc(Br)c3)c(CCCN3CCC(c4cccc(NC(=O)C(C)C)c4)CC3)c2c1` [Example 765], for which the Ki is 6.5 nM.

Take `CC(C)C(=O)Nc1cccc(C2CCN(CCCc3c(-c4cccc([N+](=O)[O-])c4)[nH]c4ccccc34)CC2)c1` [Example 766]: the Ki is 7.6 nM.

As to `CC(C)C(=O)Nc1cccc(C2CCN(CCCc3c(-c4cccc([N+](=O)[O-])c4)[nH]c4c3ccc3ccccc34)CC2)c1` [Example 767], the Ki was found to be 34.8 nM.

With `CC(C)C(=O)Nc1cccc(C2CCN(CCCc3c(-c4cccc([N+](=O)[O-])c4)[nH]c4ccc(OC(F)(F)F)cc34)CC2)c1` [Example 768], the Ki was 17.5 nM.

Turning to `Cc1ccc2[nH]c(-c3cccc([N+](=O)[O-])c3)c(CCCN3CCC(c4cccc(NC(=O)C(C)C)c4)CC3)c2c1` [Example 769], the Ki was found to be 12.4 nM.

On to `COc1ccc2[nH]c(-c3cccc([N+](=O)[O-])c3)c(CCCN3CCC(c4cccc(NC(=O)C(C)C)c4)CC3)c2c1` [Example 770], for which the Ki is 12.7 nM.

Regarding `CC(C)C(=O)Nc1cccc(C2CCN(CCCc3c(-c4cccc([N+](=O)[O-])c4)n(-c4ccccc4)c4ccccc34)CC2)c1` [Example 771], the inhibition constant Ki is 189 nM.

Turning to `CC(C)C(=O)Nc1cccc(C2CCN(CCCc3c(-c4cccc([N+](=O)[O-])c4)n(C)c4ccccc34)CC2)c1` [Example 772], the Ki came out at 14.9 nM.

Consider `Cc1cccc2c(CCCN3CCC(c4cccc(NC(=O)C(C)C)c4)CC3)c(-c3cccc([N+](=O)[O-])c3)[nH]c12` [Example 773], for which the inhibition constant Ki turned out to be 23.8 nM.

Take `COc1ccc2[nH]c(-c3ccc([N+](=O)[O-])cc3)c(CCCN3CCC(c4cccc(NC(=O)C(C)C)c4)CC3)c2c1` [Example 774]: the Ki is 7.9 nM.

For the molecule `CC(C)C(=O)Nc1cccc(C2CCN(CCCc3c(-c4ccccc4Br)[nH]c4ccccc34)CC2)c1` [Example 775], the Ki came out at 4.9 nM.

As for `Cc1ccc2[nH]c(-c3ccc([N+](=O)[O-])cc3)c(CCCN3CCC(c4cccc(NC(=O)C(C)C)c4)CC3)c2c1` [Example 776], the inhibition constant Ki worked out at 18.2 nM.

As for `CC(C)C(=O)Nc1cccc(C2CCN(CCCc3c(-c4ccc([N+](=O)[O-])cc4)[nH]c4c3ccc3ccccc34)CC2)c1` [Example 777], the Ki was found to be 8.5 nM.

As to `CC(C)C(=O)Nc1cccc(C2CCN(CCCC/C(=N\Nc3ccccc3)c3ccc([N+](=O)[O-])cc3)CC2)c1` [Example 778], the Ki worked out at 26.5 nM.

Turning to `Cc1cccc2c(CCCN3CCC(c4cccc(NC(=O)C(C)C)c4)CC3)c(-c3ccc([N+](=O)[O-])cc3)[nH]c12` [Example 779], the Ki is 7.6 nM.

On to `CC(C)C(=O)Nc1cccc(C2CCN(CCCC/C(=N\Nc3ccc(OC(F)(F)F)cc3)c3ccc([N+](=O)[O-])cc3)CC2)c1` [Example 780], for which the Ki was 64.3 nM.

As for `CC(C)C(=O)Nc1cccc(C2CCN(CCCc3c(-c4ccccc4Br)[nH]c4c3ccc3ccccc34)CC2)c1` [Example 781], the Ki worked out at 7.6 nM.

On to `CC(C)C(=O)Nc1cccc(C2CCN(CCCc3c(-c4ccccc4Br)[nH]c4ccc(OC(F)(F)F)cc34)CC2)c1` [Example 782], for which the Ki is 18.1 nM.

In the case of `Cc1cccc2c(CCCN3CCC(c4cccc(NC(=O)C(C)C)c4)CC3)c(-c3ccccc3Br)[nH]c12` [Example 783], the Ki is 18 nM.

Regarding `CC(C)C(=O)Nc1cccc(C2CCN(CCCc3c(-c4ccccc4Br)n(-c4ccccc4)c4ccccc34)CC2)c1` [Example 784], the Ki stood at 121 nM.

`Cc1ccc2[nH]c(-c3ccccc3Br)c(CCCN3CCC(c4cccc(NC(=O)C(C)C)c4)CC3)c2c1` [Example 785]: the Ki came out at 22.7 nM.

With `CC(C)C(=O)Nc1cccc(C2CCN(CCCc3c(-c4ccccc4I)[nH]c4ccc(OC(F)(F)F)cc34)CC2)c1` [Example 786], the Ki was 19.7 nM.

For the molecule `Cc1ccc2[nH]c(-c3ccccc3I)c(CCCN3CCC(c4cccc(NC(=O)C(C)C)c4)CC3)c2c1` [Example 787], the Ki stood at 21.6 nM.

As to `CC(C)C(=O)Nc1cccc(C2CCN(CCCc3c(-c4ccc([N+](=O)[O-])cc4)n(C)c4ccccc34)CC2)c1` [Example 788], the Ki came to 11.1 nM.

With `CC(C)C(=O)Nc1cccc(C2CCN(CCCc3c(-c4ccc([N+](=O)[O-])cc4)n(-c4ccccc4)c4ccccc34)CC2)c1` [Example 789], the Ki was 36.4 nM.

`CC(C)C(=O)Nc1cccc(C2CCN(CCCc3c(-c4ccccc4I)[nH]c4ccccc34)CC2)c1` [Example 790]: the Ki was 4.4 nM.

On to `CC(C)C(=O)Nc1cccc(C2CCN(CCCc3c(-c4ccccc4I)[nH]c4c3ccc3ccccc34)CC2)c1` [Example 791], for which the Ki was 12.7 nM.

In the case of `CC(C)C(=O)Nc1cccc(C2CCN(CCCc3c(-c4ccccc4I)n(-c4ccccc4)c4ccccc34)CC2)c1` [Example 792], the Ki was found to be 122 nM.

Turning to `Cc1cccc2c(CCCN3CCC(c4cccc(NC(=O)C(C)C)c4)CC3)c(-c3ccccc3I)[nH]c12` [Example 793], the Ki is 16.3 nM.

On to `CC(C)C(=O)Nc1cccc(C2CCN(CCCc3c(-c4ccccc4Br)n(C)c4ccccc34)CC2)c1` [Example 794], for which the Ki was found to be 4.9 nM.

For the molecule `CC1=C(C(=O)NCCCN2CCC(c3cccc(NC(=O)C(C)C)c3)CC2)C(c2ccc(F)c(F)c2)CC(=O)N1` (stereo not shown) [Example 795], the Ki was found to be 51.1 nM.

Consider `CC1=C(C(=O)NCCCN2CCC(c3cccc(NC(=O)C(C)C)c3)CC2)C(c2ccc(F)cc2F)CC(=O)N1` (stereo not shown) [Example 796], for which the Ki is 43 nM.

Turning to `COc1ccc(CCCCN2CCC(c3cccc(NC(=O)C(C)C)c3)CC2)cc1` [Example 797], the Ki was found to be 42.4 nM.

For the molecule `CCC(=O)Nc1ccc(C2CCN(CCCc3c(-c4ccccc4)n(-c4ccccc4)c4ccccc34)CC2)cc1` [Example 798], the Ki came to 475 nM.

`CCC(=O)Nc1ccc(C2CCN(CCC(c3ccccc3)c3ccccc3)CC2)cc1` [Example 799]: the Ki turned out to be 371 nM.

`CC(C)C(=O)Nc1cccc(C2CCN(CCCCc3ccc([N+](=O)[O-])cc3)CC2)c1` [Example 800]: the Ki is 9.9 nM.

With `CC(C)C(=O)Nc1cccc(C2CCN(CCc3cccc4ccccc34)CC2)c1` [Example 801], the Ki turned out to be 311 nM.

Turning to `CC(C)C(=O)Nc1cccc(C2CCN(CCC(c3ccccc3)c3ccccc3)CC2)c1` [Example 802], the Ki worked out at 36.7 nM.

As for `COc1ccc(CCCN2CCC(c3cccc(NC(=O)C(C)C)c3)CC2)cc1OC` [Example 803], the Ki came out at 299 nM.

For the molecule `CC(C)C(=O)Nc1cccc(C2CCN(CCCc3ccccc3)CC2)c1` [Example 804], the Ki was found to be 89.2 nM.

As to `CC(C)C(=O)Nc1cccc(C2CCN(CCCc3ccncc3)CC2)c1` [Example 805], the inhibitory constant (Ki) is 904 nM.

Regarding `CC(C)C(=O)Nc1cccc(C2CCN(Cc3ccc(C(C)(C)C)cc3)CC2)c1` [Example 806], the Ki is 14.1 nM.

For `CC(C)C(=O)Nc1cccc(C2CCN(Cc3ccc(C(=O)c4ccccc4)cc3)CC2)c1` [Example 807], the Ki came out at 2.7 nM.

For `CC(C)C(=O)Nc1cccc(C2CCN(CC[C@H](Oc3ccc(Cl)c(Cl)c3)c3ccccc3)CC2)c1` [Example 808], the Ki came out at 10.8 nM.

On to `CC(C)C(=O)Nc1cccc(C2CCN(CCCCCC(O)c3ccccc3F)CC2)c1` (stereo not shown) [Example 809], for which the Ki was 56.8 nM.

Turning to `CC(C)C(=O)Nc1cccc(C2CCN(CCCCC(O)c3ccc(C(F)(F)F)cc3)CC2)c1` (stereo not shown) [Example 810], the Ki is 191 nM.

As for `CC(C)C(=O)Nc1cccc(C2CCN(CCCCC(O)c3ccc(F)cc3)CC2)c1` (stereo not shown) [Example 811], the Ki was found to be 191 nM.

For `CC(C)C(=O)Nc1cccc(C2CCN(CCCCCCC(O)c3ccccc3F)CC2)c1` (stereo not shown) [Example 812], the Ki stood at 245 nM.

`CC(C)C(=O)Nc1cccc(C2CCN(CCCCCC(O)c3cccc(F)c3)CC2)c1` (stereo not shown) [Example 813]: the Ki amounted to 57.3 nM.

For the molecule `CC(C)C(=O)Nc1cccc(C2CCN(CCCCC(O)c3ccccc3F)CC2)c1` (stereo not shown) [Example 814], the Ki stood at 159 nM.

For `CC(C)C(=O)Nc1cccc(C2CCN(CCCCC(O)c3cccc(F)c3)CC2)c1` (stereo not shown) [Example 815], the Ki turned out to be 127 nM.

As to `CC(C)C(=O)Nc1cccc(C2CCN(CCCCC(O)c3cccc(Cl)c3)CC2)c1` (stereo not shown) [Example 816], the Ki is 89.6 nM.

As for `CC(C)C(=O)Nc1cccc(C2CCN(CCCCCC(O)c3ccc(F)cc3)CC2)c1` (stereo not shown) [Example 817], the Ki is 34.9 nM.
